{"source": "patent US8177778B2", "about": "“System and method for stabilizing corneal tissue after treatment” (Avedro, Inc., priority 2009, dated 2012)", "origin": "cited, not measured here", "tested_on": "corneal wound healing", "conditions": "rabbits after excimer laser PRK ablation, M6P drop vs control drop"}
{"smiles": "O=C[C@@H](O)[C@@H](O)[C@H](O)[C@H](O)COP(=O)(O)O", "note": "[M6P, Mannose 6-phosphate]", "values": [{"measurement": "subepithelial collagen", "result": "less subepithelial collagen"}, {"measurement": "corneal haze", "setting": "at 4 weeks", "result": "significant reduction in corneal haze"}]}
